For two molecules, inhibition of growth results are on record in ChEMBL document CHEMBL3045669, “Evaluation of crude toxin and metabolite produced by Helminthosporium gramineum Rabenh for the control of rice sheath blight in paddy fields” (2007).

Holding throughout (assay type): functional
What all share (conditions): read-out: GI

Assay [1] deals with Rhizoctonia solani. Description: Growth inhibition of Rhizoctonia solani AG-1 IA at 25 ug/ml after 24 hr.
Assay [2] has as its system Rhizoctonia solani. As to the kind of experiment: Growth inhibition of Rhizoctonia solani AG-1 IA at 200 ug/ml after 24 hr.
Assay [3] has as its system Rhizoctonia solani. Description: Growth inhibition of Rhizoctonia solani AG-1 IA at 100 ug/ml after 24 hr.
Assay [4] relates to Rhizoctonia solani. Description: Growth inhibition of Rhizoctonia solani AG-1 IA at 50 ug/ml after 24 hr.
The test system of assay [5] is Rhizoctonia solani. Description: Growth inhibition of Rhizoctonia solani AG-1 IA at 10 ug/ml after 24 hr.
The test system of assay [6] is Rhizoctonia solani. As to the kind of experiment: Growth inhibition of Rhizoctonia solani AG-1 IA at 1 ug/ml after 24 hr.

As for `OCC1=C[C@H](N[C@H]2C[C@H](CO)[C@@H](O[C@@H]3O[C@H](CO)[C@@H](O)[C@H](O)[C@H]3O)[C@H](O)[C@H]2O)[C@H](O)[C@@H](O)[C@@H]1O` [VALIDAMYCIN], in the assay on Rhizoctonia solani [1], the inhibition of growth at 25 µg/mL turned out to be 17%. Also, the inhibition of growth at 200 µg/mL in the assay with Rhizoctonia solani [2] stood at 45.2%. Moreover, the inhibition of growth at 100 µg/mL in the assay with Rhizoctonia solani [3] was 34%. Moreover, the inhibition of growth at 50 µg/mL with Rhizoctonia solani [4] was 22.6%. Moreover, in the assay on Rhizoctonia solani [5], the inhibition of growth at 10 µg/mL was 5.7%.
In the case of `CC(C)=C[C@H]1C[C@H](C)[C@]2(CC[C@]3(C)C[C@H]4[C@H](C(=O)C[C@@]4(C)O)/C(C=O)=C\C[C@H]32)O1` [OPHIOBOLIN A], the inhibition of growth at 25 µg/mL in the assay with Rhizoctonia solani [1] came out at 100%. Besides, the inhibition of growth at 1 µg/mL in the assay on Rhizoctonia solani [6] came out at 70.2%. In addition, the inhibition of growth at 50 µg/mL in the assay with Rhizoctonia solani [4] was 100%. Besides, the inhibition of growth at 10 µg/mL with Rhizoctonia solani [5] stood at 85.9%.
